From patent publication US10787447B2, “Pharmaceutical compounds” (Heptares Therapeutics Limited, priority 2018, dated 2020)
Read-outs that look alike come from different tables or passages of the source.

Assays:
[1] = molecular target: T1, human muscarinic M1 receptor (Homo sapiens, UniProt P11229); experiment: Alphascreen Surefire phospho-ERK1/2 functional assay, M1; type: cell-based; details: for % Emax cf. ACh, M1 / Emax: Emax relative to ACh; for EC50: phospho-ERK1/2; for Emax: CHO, read-out: % Emax cf. ACh, M1, CHO cells stably expressing human M1
T1 sequence (P11229 1-460): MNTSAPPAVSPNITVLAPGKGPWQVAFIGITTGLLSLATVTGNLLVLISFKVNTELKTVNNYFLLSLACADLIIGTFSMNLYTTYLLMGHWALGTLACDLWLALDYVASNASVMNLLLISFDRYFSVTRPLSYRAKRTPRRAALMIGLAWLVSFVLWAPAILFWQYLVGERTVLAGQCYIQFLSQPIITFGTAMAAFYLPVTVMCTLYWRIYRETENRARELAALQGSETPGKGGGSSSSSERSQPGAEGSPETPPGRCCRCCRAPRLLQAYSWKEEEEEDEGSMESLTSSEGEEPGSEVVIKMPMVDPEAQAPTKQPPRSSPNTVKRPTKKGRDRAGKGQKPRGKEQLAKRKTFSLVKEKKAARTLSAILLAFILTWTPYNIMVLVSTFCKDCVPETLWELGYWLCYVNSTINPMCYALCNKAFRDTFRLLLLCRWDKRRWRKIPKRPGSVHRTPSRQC
Method: (§1) Functional assays were performed using the Alphascreen Surefire phospho-ERK1/2 assay (Crouch & Osmond, Comb. Chem. High Throughput Screen, 2008). ERK1/2 phosphorylation is a downstream consequence of both Gq/11 and Gi/o protein coupled receptor activation, making it highly suitable for the assessment of M1, M3 (Gq/11 coupled) and M2, M4 receptors (Gi/o coupled), rather than using different assay formats for different receptor subtypes. CHO cells stably expressing the human muscarinic M1, M2, M3 or M4 receptor were plated (25K/well) onto 96-well tissue culture plates in MEM-alpha+10% dialysed FBS. Once adhered, cells were serum-starved overnight. Agonist stimulation was performed by the addition of 5 μL agonist to the cells for 5 min (37° C.). Media was removed and 50 μL of lysis buffer added. After 15 min, a 4 μL sample was transferred to 384-well plate and 7 μL of detection mixture added.
For the vast majority of examples at least two diastereomers exist and these have been separated, unless otherwise stated, using the techniques of reversed phase HPLC, chiral HPLC or chiral SFC. Isomer assignment (Isomer 1, Isomer 2, etc.) is based on the retention time of the compound using the separation technique that was performed in the final purification step. By implication, this could be reversed phase HPLC, chiral HPLC or chiral SFC retention time, and this will vary from compound to compound.

[2] = molecular target: T2, human muscarinic M4 receptor (Homo sapiens, UniProt P08173); experiment: Alphascreen Surefire phospho-ERK1/2 functional assay, M4; type: cell-based; details: for % Emax cf. ACh, M4 / Emax: Emax relative to ACh; for EC50: phospho-ERK1/2; for Emax: CHO, read-out: % Emax cf. ACh, M4, CHO cells stably expressing human M4
T2 sequence (P08173 1-479): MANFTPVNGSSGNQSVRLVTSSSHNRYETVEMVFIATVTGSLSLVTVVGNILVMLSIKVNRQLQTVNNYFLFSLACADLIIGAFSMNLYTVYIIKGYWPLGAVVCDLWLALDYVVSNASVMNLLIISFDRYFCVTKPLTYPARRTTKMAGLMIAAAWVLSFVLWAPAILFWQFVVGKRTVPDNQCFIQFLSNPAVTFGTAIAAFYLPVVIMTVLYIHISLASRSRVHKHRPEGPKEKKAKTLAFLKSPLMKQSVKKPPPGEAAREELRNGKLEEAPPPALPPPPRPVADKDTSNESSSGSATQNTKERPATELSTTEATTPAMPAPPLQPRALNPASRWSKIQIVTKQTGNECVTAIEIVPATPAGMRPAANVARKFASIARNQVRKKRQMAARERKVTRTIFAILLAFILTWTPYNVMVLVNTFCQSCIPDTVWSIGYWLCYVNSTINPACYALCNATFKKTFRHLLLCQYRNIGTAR
Method: as §1, with “ERK1/2” for “Functional assays were performed using the Alphascreen Surefire phospho-ERK1/2 assay (Crouch & Osmond, Comb. Chem. High Throughput Screen, 2008). ERK1/2”
Isomer assignment (Isomer 1, Isomer 2, etc.) is based on the retention time of the compound using the separation technique that was performed in the final purification step. By implication, this could be reversed phase HPLC, chiral HPLC or chiral SFC retention time, and this will vary from compound to compound.

[3] = pEC50 M1, CHO cells stably expressing human M1
[4] = pEC50 M4, CHO cells stably expressing human M4
[5] = CHO cells stably expressing human M1, read-out: pEC50 M1 (converted)
[6] = CHO cells stably expressing human M4, read-out: pEC50 M4 (converted)

SMILES	EC50 [1, 3] [nM]	EC50 [2, 4] [nM]	EC50 [1, 5] [nM]	EC50 [2, 6] [nM]	Emax [2] [%]	further results
CCOC(=O)N1C2COCC1CC(N1CCC3(CC1)OC(=O)NC3CC)C2 (single isomer, unassigned) [Example 5-4 Isomer 2a, Ethyl 7-(4-ethyl-2-oxo-1-oxa-3,8-diazaspiro[4.5]dec-8-yl)-3-oxa-9-azabicyclo[3.3.1]nonane-9-carboxylate]	977	200	–	–	–	% Emax cf. ACh, M1 ([1]; CHO cells stably expressing human M1, listed as 5-4 Isomer 2a): 75%; % Emax cf. ACh, M4 ([2]; CHO cells stably expressing human M4, listed as 5-4 Isomer 2a): 61%
COC(=O)N1C2COCC1CC(N1CCC(N(Cc3ccccc3)C(C)=O)CC1)C2 (single isomer, unassigned) [Example 8-2 Isomer 1, Methyl 7-(4-(N-benzylacetamido)piperidin-1-yl)-3-oxa-9-azabicyclo[3.3.1]nonane-9-carboxylate]	79.4	661	–	–	–	% Emax cf. ACh, M1 ([1]; CHO cells stably expressing human M1, listed as 8-2 Isomer 1): 99%; % Emax cf. ACh, M4 ([2]; CHO cells stably expressing human M4, listed as 8-2 Isomer 1): 54%
CCOC(=O)N1C2COCC1CC(N1CCC(C(=O)NC3(C)CCC3)CC1)C2 (single isomer, unassigned) [Example 7-1 Isomer 2, Ethyl 7-{4-[(1-methylcyclobutyl)carbamoyl]piperidin-1-yl}-3-oxa-9-azabicyclo[3.3.1]nonane-9-carboxylate]	–	–	1740	> 20000	–	% Emax cf. ACh, M1 ([1]; CHO cells stably expressing human M1, listed as 7-1 Isomer 2): 62%; % Emax cf. ACh, M4 ([2]; CHO cells stably expressing human M4, listed as 7-1 Isomer 2): 54%
CCOC(=O)N1C2COCC1CC(N1CCC(C#N)(c3ccccn3)CC1)C2 (single isomer, unassigned) [Example 3-1 Isomer 1, Ethyl 7-[4-cyano-4-(pyridin-2-yl)piperidin-1-yl]-3-oxa-9-azabicyclo[3.3.1]nonane-9-carboxylate]	–	–	1380	129	94	Emax [1]: 97%
COC(=O)N1C2COCC1CC(N1CCC(N(CC3(C)CCC3)C(C)=O)CC1)C2 (single isomer, unassigned) [Example 8-1 Isomer 1, Methyl 7-(4-(N-((1-methylcyclobutyl)methyl)acetamido)piperidin-1-yl)-3-oxa-9-azabicyclo[3.3.1]nonane-9-carboxylate]	85.1	155	–	–	–	% Emax cf. ACh, M1 ([1]; CHO cells stably expressing human M1, listed as 8-1 Isomer 1): 123%; % Emax cf. ACh, M4 ([2]; CHO cells stably expressing human M4, listed as 8-1 Isomer 1): 77%
CCOC(=O)N1C2COCC1CC(N1CCC(N(CC(C)(C)C)C(C)=O)CC1)C2 (single isomer, unassigned) [Example 6-2 Isomer 1, Ethyl 7-{4-[acetyl(2,2-dimethylpropyl)amino]piperidin-1-yl}-3-oxa-9-azabicyclo[3.3.1]nonane-9-carboxylate]	–	–	617	1050	45	Emax [1]: 71%
COC(=O)N1C2COCC1CC(N1CCC(N(Cc3ccccc3)C(C)=O)CC1)C2 (single isomer, unassigned) [Example 8-2 Isomer 2, Methyl 7-(4-(N-benzylacetamido)piperidin-1-yl)-3-oxa-9-azabicyclo[3.3.1]nonane-9-carboxylate]	603	> 20000	–	–	–	% Emax cf. ACh, M1 ([1]; CHO cells stably expressing human M1, listed as 8-2 Isomer 2): 60%; % Emax cf. ACh, M4 ([2]; CHO cells stably expressing human M4, listed as 8-2 Isomer 2): 27%
CCOC(=O)N1C2COCC1CC(N1CCC(C(=O)NCC(C)C)CC1)C2 (single isomer, unassigned) [Example 7-2 Isomer 1, Ethyl 7-{4-[(2-methylpropyl)carbamoyl]piperidin-1-yl}-3-oxa-9-azabicyclo[3.3.1]nonane-9-carboxylate]	79.4	457	–	–	72	Emax [1]: 96%
CCOC(=O)N1C2COCC1CC(N1CCC(c3cccc(OC)n3)CC1)C2 (single isomer, unassigned) [Example 2-1 Isomer 2, Ethyl 7-[4-(6-methoxypyridin-2-yl)piperidin-1-yl]-3-oxa-9-azabicyclo[3.3.1]nonane-9-carboxylate]	–	–	158	–	–	% Emax cf. ACh, M1 ([1]; CHO cells stably expressing human M1): 40%; % Emax cf. ACh, M4 ([2]; CHO cells stably expressing human M4): 20%
CCOC(=O)N1C2COCC1CC(N1CCC3(CC1)OC(=O)NC3CC)C2 (single isomer, unassigned) [Example 5-4 Isomer 1b, Ethyl 7-(4-ethyl-2-oxo-1-oxa-3,8-diazaspiro[4.5]dec-8-yl)-3-oxa-9-azabicyclo[3.3.1]nonane-9-carboxylate]	> 20000	316	–	–	–	% Emax cf. ACh, M1 ([1]; CHO cells stably expressing human M1, listed as 5-4 Isomer 1b): 9%; % Emax cf. ACh, M4 ([2]; CHO cells stably expressing human M4, listed as 5-4 Isomer 1b): 30%
CCOC(=O)N1C2COCC1CC(N1CCC(C(=O)N3CCCCCC3)CC1)C2 (single isomer, unassigned) [Example 7-4 Isomer 1, Ethyl 7-[4-(azepan-1-ylcarbonyl)piperidin-1-yl]-3-oxa-9-azabicyclo[3.3.1]nonane-9-carboxylate]	–	–	550	> 20000	65	Emax [1]: 85%
COC(=O)N1C2COCC1CC(N1CCC(N(CC3(C)CCC3)C(C)=O)CC1)C2 (single isomer, unassigned) [Example 8-1 Isomer 2, Methyl 7-(4-(N-((1-methylcyclobutyl)methyl)acetamido)piperidin-1-yl)-3-oxa-9-azabicyclo[3.3.1]nonane-9-carboxylate]	234	575	–	–	–	% Emax cf. ACh, M1 ([1]; CHO cells stably expressing human M1, listed as 8-1 Isomer 2): 86%; % Emax cf. ACh, M4 ([2]; CHO cells stably expressing human M4, listed as 8-1 Isomer 2): 47%
CCOC(=O)N1C2COCC1CC(N1CCC(C(=O)NC3(C)CCC3)CC1)C2 (single isomer, unassigned) [Example 7-1 Isomer 1, Ethyl 7-{4-[(1-methylcyclobutyl)carbamoyl]piperidin-1-yl}-3-oxa-9-azabicyclo[3.3.1]nonane-9-carboxylate]	–	–	380	324	–	% Emax cf. ACh, M1 ([1]; CHO cells stably expressing human M1, listed as 7-1 Isomer 1): 91%; % Emax cf. ACh, M4 ([2]; CHO cells stably expressing human M4, listed as 7-1 Isomer 1): 76%
CCOC(=O)N1C2COCC1CC(N1CCC3(CC1)CNC(=O)C3)C2 (single isomer, unassigned) [Example 5-2 Isomer 1, Ethyl 7-(3-oxo-2,8-diazaspiro[4.5]dec-8-yl)-3-oxa-9-azabicyclo[3.3.1]nonane-9-carboxylate]	316	302	–	–	36	% Emax cf. ACh, M1 ([1]; CHO cells stably expressing human M1, listed as 5-2 Isomer 1): 82%
